Experimental findings from ChEMBL document CHEMBL1133109, “Design, synthesis, and pharmacological characterization of 4-[4, 4-dimethyl-3-(4-hydroxybutyl)-5-oxo-2-thioxo-1-imidazolidinyl]- 2-iodobenzonitrile as a high-affinity nonsteroidal androgen receptor ligand” (J Med Chem, 2000) are described below.

The test concerns the target T1, Androgen receptor (Rattus norvegicus, UniProt P15207).
T1 sequence (P15207 whole entry): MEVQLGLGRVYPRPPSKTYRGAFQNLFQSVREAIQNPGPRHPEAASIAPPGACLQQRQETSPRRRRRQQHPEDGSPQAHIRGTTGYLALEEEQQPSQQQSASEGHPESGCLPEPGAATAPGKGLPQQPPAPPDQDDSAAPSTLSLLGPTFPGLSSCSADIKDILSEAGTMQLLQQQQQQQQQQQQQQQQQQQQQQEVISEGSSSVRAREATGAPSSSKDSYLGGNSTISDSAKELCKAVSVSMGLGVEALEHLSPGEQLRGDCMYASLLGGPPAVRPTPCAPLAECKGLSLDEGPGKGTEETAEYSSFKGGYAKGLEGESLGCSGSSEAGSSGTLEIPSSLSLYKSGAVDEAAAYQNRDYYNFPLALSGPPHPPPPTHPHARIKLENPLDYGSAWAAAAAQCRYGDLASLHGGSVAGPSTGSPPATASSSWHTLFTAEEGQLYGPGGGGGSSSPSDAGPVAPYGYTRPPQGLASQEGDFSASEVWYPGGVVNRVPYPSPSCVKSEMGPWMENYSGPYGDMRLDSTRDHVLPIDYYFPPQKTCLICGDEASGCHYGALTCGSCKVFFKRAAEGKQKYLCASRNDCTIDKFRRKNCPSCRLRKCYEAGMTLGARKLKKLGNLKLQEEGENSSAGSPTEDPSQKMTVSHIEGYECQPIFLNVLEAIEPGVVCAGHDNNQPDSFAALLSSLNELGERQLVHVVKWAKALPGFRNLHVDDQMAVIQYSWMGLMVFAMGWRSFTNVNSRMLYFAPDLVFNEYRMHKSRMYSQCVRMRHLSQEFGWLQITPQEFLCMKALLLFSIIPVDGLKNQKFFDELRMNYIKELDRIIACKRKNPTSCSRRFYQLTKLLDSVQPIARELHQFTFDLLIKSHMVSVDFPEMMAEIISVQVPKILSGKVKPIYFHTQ
Description: Inhibitory constant against rat prostate cytosol androgen receptor using [3H]mibolerone
In the case of `CC1(C)C(=O)N(c2ccc(C#N)c(C(F)(F)F)c2)C(=S)N1CCCCO`, the affinity corresponds to a Ki of 2.23 nM. To `CC1(C)C(=O)N(c2ccc(C#N)c(I)c2)C(=S)N1CCCCO` belongs 0.71 nM; to `C[C@@H]1CC2=CC(=O)CC[C@@H]2[C@H]2CC[C@@]3(C)[C@@H](CC[C@]3(C)O)[C@@H]21` [MIBOLERONE], 0.75 nM.
